The values that follow are results of earlier work, collected in US12472172B2, “Lomitapide for use in methods of treating hyperlipidemia and hypercholesterolemia in pediatric patients” (Amryt Pharmaceuticals Inc., priority 2020, dated 2025).

The conditions of the data set: adult.

Consider `O=C(NC1CCN(CCCCC2(C(=O)NCC(F)(F)F)c3ccccc3-c3ccccc32)CC1)c1ccccc1-c1ccc(C(F)(F)F)cc1` [lomitapide, N-(2,2,2-trifluoroethyl)-9-[4-[4-[[[4′(trifluoromethyl)[1,1′-biphenyl]-2-yl]carbonyl]amino]-1-piperidinyl]butyl]-9H-fluorene-9-carboxamide], for which the “previously used fixed Qgut input” value is 17.9 L/h.
